We go through 20 compounds from patent US9296762B2, “Complexing agents and corresponding lanthanide complexes” (CISBIO BIOASSAYS, priority 2011, dated 2016).

Molecules are shown by their SMILES.

Data set [1] is described as follows: UV spectra of the chromophores, maximum absorption wavelength. In kind it is physicochemical. Particulars: UV spectrum of chromophore 78, carboxylate function protected in ester form. How it is done:
Several compounds according to the invention were prepared and their photophysical properties, in particular the wavelengths corresponding to their maximum absorption peaks (λmax), were determined. The structures of these compounds and the results obtained are described in table 2.
The chromophores (similar to compound 78, carboxylate function protected in ester form) were synthesized according to the protocol described in scheme 13, using one of the two approaches “A” or “B” as described in this scheme (including that for the chromophores comprising naphthyl, thiolanyl, imidazolyl and anthracenyl rings or heterocycles). For each chromophore, the UV spectra were recorded and the maximum absorption wavelengths (λmax) were determined and reported in table 2.

Data set [2] is described as follows: Photophysical properties of symmetrical europium TACN complexes 81. It counts as physicochemical. Particulars: symmetrical europium TACN complex 81 made of three identical chromophores. The method, then: For certain chromophores, europium complexes according to the invention in which the three chromophores are identical (symmetrical complexes) were prepared using the protocol described in scheme 14, with a TACN macrocycle (the synthetic yields for the intermediate compounds 79, 80 and 81 of scheme 14 were reported in table 2). The photophysical properties of these europium complexes were determined and also reported in this table.

`COC(=O)c1cc(C#Cc2ccc(NC(C)=O)cc2C)cc(CO)n1`: the “Chromophore 78 λmax (nm)” value in data set [1] stood at 322 nm. As to `COC(=O)c1cc(C#Cc2ccc(OC)cc2)cc(CO)n1`, the “Chromophore 78 λmax (nm)” value in data set [1] came out at 320 nm. Besides, in data set [2], the “Complex 81 Quantic yield (%)” value is reported as 52% and the “Complex 81 λmax (nm)” value is 333 nm.

Regarding `COC(=O)c1cc(C#Cc2ccc(O)cc2)cc(CO)n1`, the “Chromophore 78 λmax (nm)” value in data set [1] is listed as 324 nm.

As for `COC(=O)c1cc(C#Cc2ccc(OC)cc2OC)cc(CO)n1`, the “Chromophore 78 λmax (nm)” value in data set [1] was determined as 319 nm. As to `COC(=O)c1cc(C#Cc2ccccc2OC)cc(CO)n1`, the “Chromophore 78 λmax (nm)” value in data set [1] is recorded as 323 nm. For the same compound, in data set [2], the “Complex 81 Quantic yield (%)” value is listed as 46% and the “Complex 81 λmax (nm)” value was determined as 336 nm. For `COC(=O)c1cc(C#Cc2cc(OC)c(C)c(OC)c2)cc(CO)n1`, in that order: 319 nm, 11% and 336 nm. `COC(=O)c1cc(C#Cc2ccc(Oc3ccccc3)cc2)cc(CO)n1`: in data set [1], the “Chromophore 78 λmax (nm)” value is 315 nm. In the case of `COC(=O)c1cc(C#Cc2cccc3ccccc23)cc(CO)n1`, the “Chromophore 78 λmax (nm)” value in data set [1] came to 329 nm. For the compound `COC(=O)c1cc(C#Cc2ccc3cc(OC)ccc3c2)cc(CO)n1`, the “Chromophore 78 λmax (nm)” value in data set [1] amounted to 335 nm. For the compound `COC(=O)c1cc(C#Cc2ccsc2)cc(CO)n1`, the “Chromophore 78 λmax (nm)” value in data set [1] is 326 nm. For the same compound, in data set [2], the “Complex 81 Quantic yield (%)” value is 52% and the “Complex 81 λmax (nm)” value came to 323 nm. For `COC(=O)c1cc(C#Cc2cncn2C)cc(CO)n1`, in that order: 315 nm, 54% and 333 nm. In the case of `COC(=O)c1cc(C#Cc2ccc(-c3ccccc3)cc2)cc(CO)n1`, in data set [1], the “Chromophore 78 λmax (nm)” value turned out to be 318 nm.

With `COC(=O)c1cc(C#Cc2ccc(NC(=O)OC(C)(C)C)cc2)cc(CO)n1`, the “Chromophore 78 λmax (nm)” value in data set [1] was determined as 326 nm. With `COC(=O)c1cc(C#Cc2ccc(NC(=O)c3cc(OC)c(OC)c(OC)c3)cc2)cc(CO)n1`, the “Chromophore 78 λmax (nm)” value in data set [1] amounted to 324 nm. The same measure, in the same setting: under `COC(=O)c1cc(C#Cc2ccc(NC(=O)c3ccccc3)cc2)cc(CO)n1` stands 323 nm; under `COC(=O)c1cc(C#Cc2ccc(SC)cc2)cc(CO)n1`, 332 nm. `COC(=O)c1cc(C#Cc2ccc(OC)cc2C)cc(CO)n1`: the “Chromophore 78 λmax (nm)” value in data set [1] is 326 nm. Besides, in data set [2], the “Complex 81 Quantic yield (%)” value stood at 76% and the “Complex 81 λmax (nm)” value is 343 nm. Take `COC(=O)c1cc(C#Cc2c3ccccc3cc3ccccc23)cc(CO)n1`: the “Chromophore 78 λmax (nm)” value in data set [1] was found to be 326 nm.

On to `COC(=O)c1cc(C#Cc2ccc(OCC(=O)OC(C)(C)C)cc2)cc(CO)n1`, for which the “Chromophore 78 λmax (nm)” value in data set [1] stood at 318 nm.

For the compound `COC(=O)c1cc(C#Cc2ccccc2)cc(CO)n1` [reference compound], in data set [1], the “Chromophore 78 λmax (nm)” value is recorded as 291 nm.
